We go through eleven molecules from patent US8067586B2, “Fused heteroaryl derivatives” (Astellas Pharma Inc., priority 2000, dated 2011).

In general, IC50 refers to the midpoint of a concentration-inhibition curve.

Bounds are passed on as bounds.

For one test, the target named is bovine p110α (Bos taurus, UniProt P32871). Kind of test: Inhibition of PI3K (p110α subtype). Format: biochemical.
Sequence of bovine p110α (P32871 whole entry): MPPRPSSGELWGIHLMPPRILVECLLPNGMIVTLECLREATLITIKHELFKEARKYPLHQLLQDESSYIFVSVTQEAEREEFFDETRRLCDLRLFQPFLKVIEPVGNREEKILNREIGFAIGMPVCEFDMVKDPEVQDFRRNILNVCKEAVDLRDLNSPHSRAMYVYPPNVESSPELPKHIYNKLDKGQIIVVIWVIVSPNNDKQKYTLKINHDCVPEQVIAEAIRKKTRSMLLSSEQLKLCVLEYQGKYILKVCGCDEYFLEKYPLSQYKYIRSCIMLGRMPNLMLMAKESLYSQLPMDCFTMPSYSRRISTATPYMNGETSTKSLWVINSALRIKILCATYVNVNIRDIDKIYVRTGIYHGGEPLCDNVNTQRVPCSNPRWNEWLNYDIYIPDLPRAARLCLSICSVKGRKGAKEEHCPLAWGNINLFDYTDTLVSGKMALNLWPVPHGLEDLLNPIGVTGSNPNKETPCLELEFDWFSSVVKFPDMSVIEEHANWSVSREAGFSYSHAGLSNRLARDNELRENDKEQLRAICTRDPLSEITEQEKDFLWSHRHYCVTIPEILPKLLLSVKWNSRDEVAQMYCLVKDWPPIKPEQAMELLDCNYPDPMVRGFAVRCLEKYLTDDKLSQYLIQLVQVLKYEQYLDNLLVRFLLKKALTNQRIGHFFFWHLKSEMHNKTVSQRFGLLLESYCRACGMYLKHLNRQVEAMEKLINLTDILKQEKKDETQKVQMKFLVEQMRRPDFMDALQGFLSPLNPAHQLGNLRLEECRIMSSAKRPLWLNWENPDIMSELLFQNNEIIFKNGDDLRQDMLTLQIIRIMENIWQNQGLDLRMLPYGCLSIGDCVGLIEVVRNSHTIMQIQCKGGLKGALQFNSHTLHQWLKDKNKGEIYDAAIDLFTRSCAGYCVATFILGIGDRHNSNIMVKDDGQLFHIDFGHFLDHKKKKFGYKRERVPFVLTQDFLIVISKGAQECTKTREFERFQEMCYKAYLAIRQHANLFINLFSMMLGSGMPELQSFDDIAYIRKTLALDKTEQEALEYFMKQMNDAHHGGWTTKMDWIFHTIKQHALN
Details: not given
`Nc1ccc(C(=O)Nc2cccc(-c3nc(N4CCOCC4)c4oc5ncccc5c4n3)c2)cn1` [Co 17, 6-amino-3′-(4-morpholinopyrido[3′,2′:4,5]furo[3,2-d]pyrimidin-2-yl)nicotinanilide] gave an IC50 below 1000 nM.

The test is the same for the next values; noted with them: bovine p110α, 37° C. for 15 minutes; read-out: IC50, p110α subtype inhibition.
Turning to `O=C(Nc1cccc(-c2nc(N3CCOCC3)c3oc4ncccc4c3n2)c1)c1ccccn1` [Co 10], the IC50 was below 1000 nM.

The test system of the next test is A375 cells. Put plainly: Melanoma cell growth inhibition (Alamar Blue). In kind it is cell-based. The conditions noted are these: Homo sapiens, A-375, incubation for over 46 hours. As to the method:
A375 cells from a melanoma cell line were cultured in DMEM medium (GIBCO) supplemented with 10% fetal bovine serum. A375 cells at 10,000 cells/100 μl were added to a 96 well plate which contained 1 μl/well of the test compounds (final concentration of 0.001˜30 μM). After incubation for over 46 hours, Alamar Blue reagent was added to the medium (10 μl/well).
On the technique in general: Alamar Blue is a resazurin reagent that responds to reducing activity.
`Nc1ccc(-c2nc(N3CCOCC3)c3oc4ncccc4c3n2)cc1` [Co 33, 4-(4-morpholinopyrido[3′,2′:4,5]furo[3,2-d]pyrimidin-2-yl)aniline] came in with an IC50 of 330 to 4260 nM.
As for `Oc1cccc(-c2nc(N3CCOCC3)c3oc4ncccc4c3n2)c1` [Co 50, 3-(4-morpholinopyrido[3′,2′:4,5]furo[3,2-d]pyrimidin-2-yl)phenol], the IC50 lay in the range of 330 to 4260 nM.
The same measure, in the same setting: for `c1cc(OCCN2CCNCC2)cc(-c2nc(N3CCOCC3)c3oc4ncccc4c3n2)c1` [Co 69, 4-morpholino-2-[3-(2-piperazin-1-ylethoxy)phenyl]pyrido[3′,2′:4,5]furo[3,2-d]pyrimidine] the value was 330 to 4260 nM.
In turn, `Oc1cccc(-c2nc(N3CCOCC3)c3cnccc3n2)c1` [Co 164, 3-(4-morpholinopyrido[4,3-d]pyrimidin-2-yl)phenol] came in with an IC50 of 330 to 4260 nM.
For `Oc1cccc(-c2nc(N3CCOCC3)c3ncccc3n2)c1` [Co 172, 3-(4-morpholinopyrido[3,2-d]pyrimidin-2-yl)phenol], the IC50 was in the range of 330 to 4260 nM.
In turn, `Oc1cccc(-c2nc(N3CCOCC3)c3ccncc3n2)c1` [Co 174, 3-(4-morpholinopyrido[3,4-d]pyrimidin-2-yl)phenol] had an IC50 of 330 to 4260 nM.
Still for that read-out and setting: for `COc1ccc2nc(-c3cccc(O)c3)nc(N3CCOCC3)c2c1` [Co 186, 3-(6-methoxy-4-morpholinoquinazolin-2-yl)phenol] the value was 330 to 4260 nM; for `Oc1cccc(-c2nc(N3CCOCC3)c3sccc3n2)c1` [Co 190, 3-(4-morpholinothieno[3,2-d]pyrimidin-2-yl)phenol], 330 to 4260 nM; for `Oc1cccc(-c2nc(N3CCOCC3)c3nccnc3n2)c1` [Co 191, 3-(4-morpholinopteridin-2-yl)phenol], 330 to 4260 nM.
